Assay [1] deals with T1, TrkA (Homo sapiens, UniProt P04629).
T1 construct: host or cells: U2OS (human osteosarcoma), co-expressing p75 and SHC-1 fused to the enzyme acceptor
Description: TrkA PathHunter cell-based assay (U2OS-TrkA/p75). The procedure:
(§1) U2OS cells were maintained subconfluent in EMEM supplemented with 10% FBS and penicillin/streptomycin/hygromycin and G418. One day prior to the experiment, 5000 cells of EMEM supplemented with 0.5% horse serum were seeded in each well of a 384-well white plate. The assay was performed as previously described. Briefly, the TrkA or TrkB cell-based PathHunter® assays use enzyme fragment complementation (EFC) technology for the complementation of two β-galactosidase (β-gal) fragments in order to study protein–protein interactions. Upon activation with ligand, TrkA or TrkB are phosphorylated on several tyrosine residues, including tyrosine 490, leading to an interaction with SHC-1. In the PathHunter® assays, the Trk-receptors are fused to an enzyme donor tag, and SHC-1 is fused to a larger part of β-gal called an enzyme acceptor. The interactions between the recombinant enzyme donor, i.e., the Trk-receptor, with an enzyme acceptor, i.e., SHC-1, leads to an active β-gal enzyme. The functional (complemented) β-gal will hydrolyze a substrate to generate a luminescence signal. The generated luminescence was read using an EnVision plate reader from PerkinElmer, Upplands Väsby, Sweden, or an ID5 plate reader from Molecular Devices, Berkshire, RG41 5TS UK. […] Min- and Max-control wells were included on each plate.
Both Toltrazuril and Ponazuril are registered veterinary products prescribed for parasitic infections in animals. […] The activation of Trk-receptors leads to an intracellular interaction between the Trk-receptor and SHC-1 and thereby to the complementation of β-gal, which will render in a functional enzyme. β-gal will hydrolyze a substrate to generate luminescence, which is proportional to the number of activated receptors.

Assay [2] concerns the target T2, TrkB (Homo sapiens, UniProt Q16620).
T2 construct: host or cells: U2OS (human osteosarcoma), co-expressing p75 and SHC-1 fused to the enzyme acceptor
Briefly: TrkB PathHunter cell-based assay (U2OS-TrkB/p75). The procedure: as §1, with “each plate. A compound was considered a hit if the percent activation was more than 50% and if the value was two standard deviations higher than the mean value of all of the samples on the plate. The average activation of all of samples on 10 different 384-well plates was 31%. […] Due to the risk of adverse events with the systemic administration of TrkA agonists, the screen and the re-screen processes were designed to increase the likelihood of identifying the positive modulators of NGF-signaling rather than identifying TrkA agonists. Based on the results of the re-screen, in combination with the physical–chemical properties of the molecules, a collection of hits was used for the EC50 determinations.” for “each plate.”
Both Toltrazuril and Ponazuril are registered veterinary products prescribed for parasitic infections in animals. […] The cellular response to NGF or BDNF was measured using PathHunter® assays employing β-gal enzyme fragment complementation technology. The activation of Trk-receptors leads to an intracellular interaction between the Trk-receptor and SHC-1 and thereby to the complementation of β-gal, which will render in a functional enzyme. β-gal will hydrolyze a substrate to generate luminescence, which is proportional to the number of activated receptors. […]

For assay [3], the system named is Wistar rats. Briefly: Novel object recognition. The following applies: 1 mg/kg. Format: in vivo, rat. The procedure:
The novel object recognition model was conducted by Suven Life Sciences Ltd. (Hyderabad, India) using male Wistar rats (n = 12/group). This study was performed in compliance with the requirements and in-house animal care and usage policy of the Institutional Animal Ethics Committee (IAEC). The experiment was conducted over a 5-day period. For the first 3 days, ACD855 or vehicle were administered to the animals. On Day 4, the rats were acclimatized to their respective arenas for 20 min and then returned to their home cages for the administration of ACD855 or vehicle (1 h post habituation phase). On Day 5, the rats were administered vehicle or ACD855 1 h prior to trial, donepezil (1 mg/kg) was injected 30 min prior to trial, and scopolamine (1 mg/kg) was injected 20 min prior to trial. 20 min after scopolamine administration, the rats were subjected to the familiarization phase. The experiment was performed as described by Lueptow. The discriminative index for the drug-treated groups was compared to that of the vehicle group by use of the Kruskal–Wallis test. The discriminative index is the ratio of time spent exploring the novel object divided by the sum of the time spent exploring the novel object and a familiar object in the choice trial.

The subject of assay [4] is C57BL/6J mice. Description: Passive avoidance task. It is filed as in vivo, mouse. The settings on record: low doses given by themselves; physostigmine 0.025 mg/kg. The procedure:
The passive avoidance (PA) task is an associate learning paradigm that is based on Pavlovian fear-conditioning and instrumental conditioning and conducted as previously described in male C57BL/6J mice (n = 7–8/group) from Charles River Laboratories, Sulzfeld, Germany. Vehicle or ACD855 (1, 3 or 10 mg/kg), formulated in 20% DMSO in 0.1 M sodium phosphate buffer pH 8.0, was administered daily (Days 1–4) through s.c. injections (4 mL/kg body weight). ACD856 (0.1, 0.3, 1 or 3 mg/kg) was administered by a single s.c. dose on the training day (Day 4). ACD855, ACD856, ANA-12 (0.5 mg/kg, from Sigma Aldrich, Stockholm, Sweden), physostigmine (0.025 mg/kg, from Sigma Aldrich, Stockholm, Sweden), or vehicle was administered 60 min prior to training, except for when addressing the effects on consolidation, in which case, ACD856 was dosed 5 min after the training session on day 4. Moreover, on the training day (Day 4), scopolamine or the NMDA-antagonist MK-801 (both from Sigma Aldrich, Stockholm, Sweden) at 0.3 mg/kg or vehicle was administered once s.c. 30 min prior to training. No compound was administered on the test day (Day 5), except for when addressing effects on retrieval, in which case, ACD856 was dosed 30 min prior to testing on day 5. Retention latencies and time spent in the bright compartment were determined 24 h after training (Day 5).

Assay [5] deals with Shaffer collaterals-CA1 pathway, hippocampal slices. Briefly: Facilitation of long-term potentiation in rat hippocampal slices. The settings on record: 50 ng/mL; n = 9 slices from 7 rats. The procedure:
Male Sprague Dawley rats (4–5 weeks old) from Charles River Laboratories, Sulzfeld, Germany, were used in these experiments. Rats were deeply anesthetized using isoflurane and decapitated soon after the disappearance of the corneal reflexes. The brains were removed and placed in ice-cold standard artificial CSF (aCSF) solution (124 mM NaCl, 30 mM NaHCO3, 10 mM glucose, 1.25 mM NaH2PO4, 3.5 mM KCl, 1 mM MgCl2, 2 mM CaCl2). Hippocampal horizontal sections (400 µm thick) were prepared using a Leica VT1200S vibratome (Leica Microsystems, Kista, Sweden). Immediately after slicing, sections were transferred into an interface incubation chamber filled with standard aCSF. The chamber was held at 34 °C during the slicing period and was subsequently allowed to cool down to room temperature. […] The facilitation of long-term potentiation (LTP) was monitored in the Shaffer collaterals (SC)-CA1 pathway in the hippocampus. […] Data were normalized with respect to the mean fEPSP slope recorded during the last 10 min of the baseline period.
It has been well-described that the transient, short-term plasticity of synaptic strength induced by a weak stimulation in hippocampal slices can turn into long-term potentiation (LTP) through the exogenous application of BDNF [71, 72, 73]. […] In the control slices, the recorded potentiation decreased to the baseline level after 60 min. […]

T2 sequence (Q16620 32-822): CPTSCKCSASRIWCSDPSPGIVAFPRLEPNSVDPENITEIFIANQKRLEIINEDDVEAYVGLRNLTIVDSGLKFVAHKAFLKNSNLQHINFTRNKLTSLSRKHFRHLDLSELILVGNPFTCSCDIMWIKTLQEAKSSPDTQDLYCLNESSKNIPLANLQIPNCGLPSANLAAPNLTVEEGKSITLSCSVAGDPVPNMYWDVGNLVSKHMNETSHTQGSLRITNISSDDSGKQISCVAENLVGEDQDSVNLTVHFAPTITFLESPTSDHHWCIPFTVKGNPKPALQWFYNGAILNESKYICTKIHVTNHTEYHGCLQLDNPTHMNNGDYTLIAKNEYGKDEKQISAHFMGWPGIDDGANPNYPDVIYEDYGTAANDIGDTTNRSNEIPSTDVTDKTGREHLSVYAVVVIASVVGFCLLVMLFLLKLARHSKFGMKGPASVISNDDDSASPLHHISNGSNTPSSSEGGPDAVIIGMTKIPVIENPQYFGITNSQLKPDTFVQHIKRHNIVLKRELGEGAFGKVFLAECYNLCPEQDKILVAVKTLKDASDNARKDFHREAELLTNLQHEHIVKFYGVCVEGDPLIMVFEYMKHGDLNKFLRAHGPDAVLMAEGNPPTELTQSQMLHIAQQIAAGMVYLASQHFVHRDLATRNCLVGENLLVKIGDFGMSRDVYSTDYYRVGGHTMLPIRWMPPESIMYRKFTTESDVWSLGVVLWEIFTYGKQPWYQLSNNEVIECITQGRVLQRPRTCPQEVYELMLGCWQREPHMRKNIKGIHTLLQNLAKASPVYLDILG
T1 sequence (P04629 33-796): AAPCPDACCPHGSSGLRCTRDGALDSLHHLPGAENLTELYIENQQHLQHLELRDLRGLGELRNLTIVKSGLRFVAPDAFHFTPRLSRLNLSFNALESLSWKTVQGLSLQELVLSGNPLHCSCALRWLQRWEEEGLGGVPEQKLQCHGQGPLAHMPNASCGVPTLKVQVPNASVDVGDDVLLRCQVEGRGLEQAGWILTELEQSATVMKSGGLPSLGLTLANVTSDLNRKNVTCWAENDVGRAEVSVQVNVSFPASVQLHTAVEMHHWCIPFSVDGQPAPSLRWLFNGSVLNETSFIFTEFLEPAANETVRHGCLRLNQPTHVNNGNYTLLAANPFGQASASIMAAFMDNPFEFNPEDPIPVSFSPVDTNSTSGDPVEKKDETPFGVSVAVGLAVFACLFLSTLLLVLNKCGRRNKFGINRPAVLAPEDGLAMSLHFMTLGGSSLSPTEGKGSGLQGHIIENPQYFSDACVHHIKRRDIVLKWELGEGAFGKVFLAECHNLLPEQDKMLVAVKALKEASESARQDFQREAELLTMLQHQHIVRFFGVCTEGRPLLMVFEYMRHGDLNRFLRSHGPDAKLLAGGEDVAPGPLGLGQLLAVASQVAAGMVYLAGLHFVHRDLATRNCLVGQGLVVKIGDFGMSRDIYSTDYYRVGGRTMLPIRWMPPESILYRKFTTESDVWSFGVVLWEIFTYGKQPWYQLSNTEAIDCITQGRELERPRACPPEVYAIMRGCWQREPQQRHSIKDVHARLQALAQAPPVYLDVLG

`N#CC(c1ccc(Cl)cc1)c1c(Cl)cc(-n2ncc(=O)[nH]c2=O)cc1Cl` (centres unmarked) [Diclazuril]: the “activity in the TrkA assay” value in assay [1] is listed as “not active”. Besides, the “activity in the TrkB assay” value in assay [2] was “not active”.

With `COc1cc2c(cc1OC)C(=O)C(CC1CCN(Cc3ccccc3)CC1)C2` (centres unmarked) [Donepezil], in assay [3], the “time with novel object vs familiar object after scopolamine” value is given as “spent significantly more time with the novel object”.

Turning to `CNC(=O)Oc1ccc2c(c1)[C@]1(C)CCN(C)[C@@H]1N2C` [physostigmine], in assay [4], the “effect of low dose alone on scopolamine-induced memory impairment” value is on record as “no significant effect”.

B1: BDNF: recombinant human brain-derived neurotrophic factor (protein, UniProt P23560 19-247, looked up)
Neurotrophic factor BDNF …: APMKEANIRGQGGLAYPGVRTHGTLESVNGPKAGSRGLTSLADTFEHVIEELLDEDQKVRPNEENNKDADLYTSRVMLSSQVPLEPPLLFLLEEYKNYLDAANMSMRVRRHSDPARRGELSVCDSISEWVTAADKKTAVDMSGGTVTVLEKVPVSKGQLKQYFYETKCNPMGYTKEGCRGIDKRHWNSQCRTTQSYVRALTMDSKKRIGWRFIRIDTSCVCTLTIKRGR
As to B1, the “long-lasting potentiation of evoked synaptic responses (fEPSP slope), fold increase” value in assay [5] turned out to be 1.22 ± 0.04 fold.
